Data as given in patent US4202891A, “15-Oxygenated sterol compounds and the use of such compounds to inhibit the biosynthesis of sterols” (priority 1977, dated 1980).
Read-outs that look alike come from different tables or passages of the source. Each block holds one compound with its values, some of them ahead of it.

Columns and labels:
[1] = test system: sterol biosynthesis in L cells; assay: Inhibition of sterol synthesis from [1-14C]acetate in L cell cultures; type: cell-based; conditions: Mus musculus, read-out: Concentrations Required for 50% Inhibition of Sterol Synthesis
Method: (§1) The effect of various 15-oxygenated sterols on sterol biosynthesis in L cells and in primary cultures of mouse liver cells was tested essentially under conditions described in detail previously [A. A. Kandutsch and H. W. Chen, J. Biol. Chem., Vol. 248, pp. 8408-8417 (1973) and A. A. Kandutsch and H. W. Chen, J. Biol. Chem., Vol. 249, pp. 6057-6061 (1974`)].
(§2) The primary liver cell cultures were prepared from 16-day-old (C57BL/6J fetuses and grown in chemically defined medium (serum-free) as described in the above cited publications. The L cells, a subline of NCTC clone 929 mouse fibroblasts, were grown in chemically defined medium (serum-free) as described in the publications. These L cells are transformed fibroblasts which are regarded as malignant since they will grow as tumors if injected into the mouse strain from which they were initially obtained.
(§3) The preparation of steroid-containing media, procedures for assays of the conversion of [1-^14 C]acetate into digitonin-precipitable sterols, fatty acids, and CO2 and methods for the measurement of DNA, protein, and HMG-CoA reductase were as described in the published articles. L cell cultures were preincubated with the 15-oxygenated sterols and their derivatives for 4 hours, then [1-^14 C]acetate was added at a concentration of 4 μmoles per ml (4 μCi per ml); or the L cell cultures were incubated for 5 hours with the 15-oxygenated sterols before they were harvested for determination of microsomal HMG-CoA reductase activity.
(§4) The test compounds were tested over a range of at least 4 concentrations and the assay was repeated until the concentration of test compound required to produce 50% inhibition was located on the steeply declining portion of an activity vs. concentration plot. To diminish any possible effects of generalized differences in cellular metabolism, the rates of sterol synthesis from [1-^14 C]acetate were calculated as the ratio of [^14 C]sterols to [^14 C]fatty acids as described in the two cited articles by Kandutsch and Chen.

liver = type: in vivo, rat (male, Sprague-Dawley); conditions: 5 mg s.c. once a day
Method: (§5) 3β-Hexadecanoyloxy-5α-cholest-8(14)-en-15-one (5 mg; dissolved in 0.25 ml of triolein), hereafter referred to as the "palmitate ester", or 3β-hemisuccinoyloxy-5α-cholest-8(14)-en-15-one (5 mg; suspended in 0.25 ml of triolein through the use of a tight-fitting all-glass homogenizer), hereafter referred to as the "hemisuccinate ester", were administered subcutaneously once a day at about 12 P.M. to each of eight and six rats, respectively. Control animals (8) received daily injections of triolein (0.25 ml).
The mean values of the liver weights of the triolein-treated rats (9.6 g±0.08, S.E.M.). S.E. differed from those of the palmitate ester-treated rats (11.4 g±0.5, S.E.M.). Similarly, the mean value of the liver weights, when expressed as a percentage of the total body weight, of the triolein-treated rats (4.09%±0.08, S.E.M.) differed from the mean value for the palmitate ester-treated rats (4.53%±0.09, S.E.M.).

[2] = type: in vivo, rat (male, Sprague-Dawley)
Method: as §5
The average percentage weight gain over the total experimental period in the palmitate, hemisuccinate, and triolein groups were (mean±S.E.M.) 40.5±4.6, 40.7±1.6, and 43.6±3.3, respectively.

serum cholesterol = assay: Effect on serum cholesterol levels in rats, daily subcutaneous injection (Examples 41, 42); type: in vivo, rat (male, Sprague-Dawley); conditions: for Serum Cholesterol (Mean ± S.E.M.): 5 mg s.c. once a day in triolein; for % Reduction of serum cholesterol (Mean ± S.E.M.): from initial levels in same rats
Method: Male rats of the Sprague-Dawley strain were fed Purina rat chow ad libidum. The rats were maintained on a light (7 A.M.-6 P.M.) -dark (6 P.M.-7 A.M.) cycle throughout the study and for a period of at least 4 days prior to the initiation of the study.
as §5
Blood samples were taken from the rats periodically and the serum cholesterol concentrations measured, in duplicate, by the method of Abell et al., J. Biol. Chem., Vol. 195, pp. 357-366 ([…]).
Following generally the procedure described in Example 41, 3β-Ethoxy-14α-ethyl-5α-cholest-7-en-15-one (5 mg) in triolein (0.25 ml) was administered subcutaneously once a day to each of eight rats. Control animals (8) received daily injections of triolein (0.25 ml).
Similarly, 5α-cholest-8(14)-en-3β-ol-15-one (2mg) in (0.2 ml) olive oil or 5.0 mg in 0.5 ml of olive oil) was administered subcutaneously once a day to each of a group of rats. The 2 mg dose was administered to 12 rats, while a like number of rats received daily injections of 0.2 ml olive oil. 5 mg doses were administered to each of 6 rats, while 6 control animals received daily injections of 0.5 ml olive oil. The rats used in this study initially weighed between 110 and 190 grams.

HMG-CoA reductase [3] = assay: Reduction of the activity of HMG-CoA reductase in primary cultures of liver cells; type: cell-based, mouse; conditions: read-out: Concentrations Required for 50% Reduction of the Activity of HMG-CoA Reductase
Method: as §2, §3
(§6) Conditions for incubating the 15-oxygenated sterols or their derivatives with liver cell cultures were similar to those described for L cell cultures except that the cultures were incubated with the test compounds for 12 hours before labeled acetate was added or before they were harvested for enzyme assay.
(§7) A number of the 15-oxygenated sterols have also been tested with respect to their effects on the activity and/or levels of the enzyme HMG-CoA reductase (3-hydroxy-3-methylglutaryl coenzyme A reductase) in the L cells and in the liver cells. As noted previously, this enzyme catalyzes the reduction of 3-hydroxy-3-methylglutaryl coenzyme A to yield mevalonic acid, an essential intermediate in the biosynthesis of sterols and of a number of other essential compounds in cells.
(§8) Using the technique described by Kandutsch and Chen in the article cited in the previous example, the concentrations of various 15-oxygenated sterols required to reduce the levels of activity of HMG-CoA reductase by 50% was determined in the cells of the L cells in culture and of the primary cultures of liver cells.

HMG-CoA reductase [4] = assay: Reduction of the activity of HMG-CoA reductase in L cell cultures; type: cell-based, mouse; conditions: read-out: Concentrations Required for 50% Reduction of the Activity of HMG-CoA Reductase
Method: as §2, §3, §7, §8

[5] = test system: sterol biosynthesis in primary cultures of mouse liver cells; assay: Inhibition of sterol synthesis from [1-14C]acetate in primary cultures of liver cells; type: cell-based; conditions: read-out: Concentrations Required for 50% Inhibition of Sterol Synthesis
Method: as §1, §2, §3, §6, §4

[6] = test system: sterol biosynthesis in primary cultures of mouse liver cells; conditions: primary cultures of liver cells, cited from earlier work; for IC50: as reported by Kandutsch and Chen, read-out: Concentrations Required for 50% Inhibition of Sterol Synthesis
[7] = test system: sterol biosynthesis in L cells; conditions: L cell cultures; as reported by Kandutsch and Chen; read-out: Concentrations Required for 50% Inhibition of Sterol Synthesis; cited from earlier work

- IC50 ([1]; L cell cultures): > 16 µM
- difference of liver weights from triolein-treated rats (in words) (liver): differed
- liver weight (mean, S.E.M.) (liver): 11.4 g
- average percentage weight gain (mean±S.E.M.) ([2]; 5 mg s.c. once a day, total experimental period): 40.5±4.6%
- differences in growth versus vehicle-treated rats (in words) ([2]; daily s.c.): no significant differences in the growth
SMILES: CCCCCCCCCCCCCCCC(=O)O[C@H]1CC[C@@]2(C)[C@@H](CCC3=C4C(=O)C[C@H]([C@H](C)CCCC(C)C)[C@@]4(C)CC[C@@H]32)C1 [3β-hexadecanoyloxy-5α-cholest-8(14)-en-15-one]
- liver weight as percentage of total body weight (mean, S.E.M.) (liver): 4.53%
- Serum Cholesterol (Mean ± S.E.M.) (serum cholesterol; day 0 (initial)): 91.6 ± 2.6 mg per 100 ml
- Serum Cholesterol (Mean ± S.E.M.) (serum cholesterol; day 3): 74.9 ± 3.9 mg per 100 ml
- Serum Cholesterol (Mean ± S.E.M.) (serum cholesterol; day 6): 75.8 ± 5.0 mg per 100 ml
- Serum Cholesterol (Mean ± S.E.M.) (serum cholesterol; day 9): 77.9 ± 5.9 mg per 100 ml
- Serum Cholesterol (Mean ± S.E.M.) (serum cholesterol; day 12): 61.4 ± 3.9 mg per 100 ml
- decrease in serum cholesterol levels (in words) (serum cholesterol; 5 mg s.c. once a day, after 3, 6, 9, 12 days vs same rats before, after 12 days vs triolein): significant decreases in serum cholesterol levels
- % Reduction of serum cholesterol (Mean ± S.E.M.) (serum cholesterol; 5 mg s.c. once a day, day 3): 18.2 ± 3.3%
- % Reduction of serum cholesterol (Mean ± S.E.M.) (serum cholesterol; 5 mg s.c. once a day, day 6): 15.7 ± 4.4%
- % Reduction of serum cholesterol (Mean ± S.E.M.) (serum cholesterol; 5 mg s.c. once a day, day 9): 14.5 ± 2.9%
- % Reduction of serum cholesterol (Mean ± S.E.M.) (serum cholesterol; 5 mg s.c. once a day, day 12): 33.2 ± 2.7%

SMILES: CO[C@H]1CC[C@@]2(C)[C@@H](CC=C3[C@@H]2CC[C@]2(C)[C@@H]([C@H](C)CCCC(C)C)C[C@H](O)[C@@]32C)C1 [3β-methoxy-14α-methyl-5α-cholest-7-en-15α-ol]
- IC50 [1]: 0.3 µM
- IC50 (HMG-CoA reductase [3]): 1.6 µM
- IC50 (HMG-CoA reductase [4]): 3 µM
- IC50 [5]: 1.9 µM

SMILES: CO[C@H]1CC[C@@]2(C)[C@@H](CC=C3[C@@H]2CC[C@]2(C)[C@@H]([C@H](C)CCCC(C)C)C[C@@H](O)[C@@]32C)C1 [3β-methoxy-14α-methyl-5α-cholest-7-en-15β-ol]
- IC50 [1]: 1.4 µM
- IC50 (HMG-CoA reductase [3]): 3.5 µM
- IC50 (HMG-CoA reductase [4]): 3.7 µM
- IC50 [5]: 3.5 µM

SMILES: CC(C)CCC[C@@H](C)[C@H]1C[C@H](O)[C@@H]2C3=CC[C@H]4C[C@@H](O)CC[C@]4(C)[C@H]3CC[C@]12C [5α,14β-Cholest-7-en-3β,15α-diol, 5α,14β-cholest-7-en-3β,15α-diol]
- IC50 [1]: 3.2 µM
- IC50 (HMG-CoA reductase [3]): 12.5 µM
- IC50 (HMG-CoA reductase [4]): 6.7 µM
- IC50 [5]: 7.5 µM

SMILES: CC(C)CCC[C@@H](C)[C@H]1C[C@@H](O)[C@@H]2C3=CC[C@H]4C[C@@H](O)CC[C@]4(C)[C@H]3CC[C@]12C [5α,14β-Cholest-7-en-3β,15β-diol, 5α,14β-cholest-7-en-3β,15β-diol]
- IC50 [1]: 1 µM
- IC50 (HMG-CoA reductase [3]): 6 µM
- IC50 (HMG-CoA reductase [4]): 4.5 µM
- IC50 [5]: 2.5 µM

SMILES: CC(C)CCC[C@@H](C)[C@H]1C[C@@H](O)C2=C3CC[C@H]4C[C@@H](O)CC[C@]4(C)[C@H]3CC[C@@]21C [5α-Cholest-8(14)-en-3β,15β-diol]
- IC50 [1]: 1.8 µM
- IC50 (HMG-CoA reductase [3]): 16.1 µM
- IC50 (HMG-CoA reductase [4]): 2.5 µM
- IC50 [5]: 10.3 µM

- IC50 ([1]; L cell cultures): 5 µM
- IC50 (HMG-CoA reductase [3]): 18 µM
- IC50 (HMG-CoA reductase [4]): 1.9 µM
- IC50 ([5]; primary cultures of liver cells): 4.8 µM
SMILES: CC(C)CCC[C@@H](C)[C@H]1CC(O)C2=C3C(O)C[C@H]4C[C@@H](O)CC[C@]4(C)[C@H]3CC[C@@]21C (stereo partly drawn) [5α-cholest-8(14)-en-3β,7ε,15ε-triol]

SMILES: CC[C@@]12C(=O)C[C@H]([C@H](C)CCCC(C)C)[C@@]1(C)CC[C@H]1C2=CC[C@H]2C[C@@H](O)CC[C@@]21C [14α-Ethyl-5α-cholest-7-en-3β-ol-15-one, 14α-ethyl-5α-cholest-7-en-3β-ol-15-one]
- IC50 [1]: 0.3 µM
- IC50 (HMG-CoA reductase [3]): 2.1 µM
- IC50 (HMG-CoA reductase [4]): 1.9 µM
- IC50 [5]: 2.1 µM

SMILES: CC(C)CCC[C@@H](C)[C@H]1C[C@H](O)[C@@]2(C)C3=CC[C@H]4C[C@@H](O)CC[C@]4(C)[C@H]3CC[C@]12C [14α-Methyl-5α-cholest-7-en-3β,15α-diol]
- IC50 [1]: 0.3 µM
- IC50 (HMG-CoA reductase [3]): 2 µM
- IC50 (HMG-CoA reductase [4]): 0.3 µM
- IC50 [5]: 1.8 µM

SMILES: CC(C)CCC[C@@H](C)[C@H]1C[C@@H](O)[C@@]2(C)C3=CC[C@H]4C[C@@H](O)CC[C@]4(C)[C@H]3CC[C@]12C [14α-Methyl-5α-cholest-7-en-3β,15β-diol]
- IC50 [1]: 0.5 µM
- IC50 (HMG-CoA reductase [3]): 4.3 µM
- IC50 (HMG-CoA reductase [4]): 1.2 µM

SMILES: CC(C)CCC[C@@H](C)[C@H]1CC(=O)[C@@]2(C)C3=CC[C@H]4C[C@@H](O)CC[C@]4(C)[C@H]3CC[C@]12C [14α-Methyl-5α-cholest-7-en-3β-ol-15-one, 14α-methyl-5α-cholest-7-en-3β-ol-15-one]
- IC50 [1]: 0.3 µM
- IC50 (HMG-CoA reductase [3]): 2.8 µM
- IC50 (HMG-CoA reductase [4]): 0.3 µM
- IC50 [5]: 4.5 µM

SMILES: CC(C)CCC(O)[C@@H](C)[C@H]1CC[C@H]2[C@@H]3CC=C4C[C@@H](O)CC[C@]4(C)[C@H]3CC[C@]12C (stereo partly drawn) [Cholest-5-en-3β,22α-diol]
- IC50 [6]: 6 µM
- IC50 [7]: 3.7 µM

SMILES: CC(C)CCC(=O)[C@@H](C)[C@H]1CC[C@H]2[C@@H]3CC=C4C[C@@H](O)CC[C@]4(C)[C@H]3CC[C@]12C [Cholest-5-en-3β-ol-22-one]
- IC50 [6]: 37 µM
- IC50 [7]: 1.7 µM

SMILES: CC(C)CCC[C@@H](C)[C@H]1CC[C@H]2[C@@H]3CC=C4C[C@@H](O)CC[C@]4(C)[C@H]3CC[C@]12C [Cholesterol]
- IC50 [6]: > 5200 µM
- activity in the liver cell culture system (in words) [6]: inactive
